In US12139458B2, “(2,5-dioxopyrrolidin-1-yl)(phenyl)-acetamide derivatives and their use in the treatment of neurological diseases” (UNIWERSYTET JAGIELLONSKI, priority 2019, dated 2024):

Legend:
[1] = system: male Swiss albino mice (CD-1); experiment: Psychomotor seizure test 6 Hz (32 mA); type: in vivo
In short: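 Compounds given i.p. in 1% aqueous Tween 30 min before a 3 s ocular stimulus (32 mA and/or 44 mA, 6 pulses/s) after lidocaine; mice normal within 10 s counted protected. ED50 from 3-4 groups of 6 mice; screening on groups of 4.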

[2] = system: male Swiss albino mice (CD-1); experiment: Psychomotor seizure test 6 Hz (44 mA); type: in vivo
In short: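 Male CD-1 mice (groups of 4) given compounds i.p. in 1% Tween 30 min before a 3 s, 6 Hz corneal stimulus at 44 mA after lidocaine. Psychomotor seizure signs (immobility, forelimb clonus, vibrissae twitching, Straub tail) scored over 10 s; ANOVA with Dunnett's test, p<0.05.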

[3] = system: Ca2+ channel type L (verapamil binding site); experiment: Ca2+ channel type L (verapamil binding site) affinity study; conditions: 100 μM, rat cerebral cortex
From the text: (§1) A unique feature of the compound 6 representing compounds of formula (II) according to the invention is the inhibition of calcium currents by blocking the transient receptor potential vanilloid type 1 (TRPV1). This effect has not been disclosed for known AEDs. TRPV1 receptor antagonism may determine the antinociceptive effect of the compounds disclosed herein. The role of the TRPV1 receptor in conduction of pain stimuli has been well documented in specialist literature (Szallasi, A.; Cortright, D. N.; Blum, C. A.; Eid, S. R. Nat. Rev. Drug. Discov. 2007, 6, 357-372). The compounds according to the invention are characterized by a complex mechanism of action, which is not described for known anticonvulsants. It should be emphasized, however, that further in vitro studies may reveal further molecular targets responsible for the pharmacological action of substances being the subject of current patent claim. The results of binding studies (sodium channel, calcium channel) and functional tests (TRPV1 receptor) for compound 6 are shown in Table 3.

TRPV1 receptor (VR1) (h) = TRPV1 receptor (VR1) (h) (Homo sapiens, UniProt Q8NER1); experiment: TRPV1 receptor functional study (antagonist effect); type: cell-based; conditions: human recombinant cells (CHO), read-out: % Inhibition of agonist control responses, TRPV1 receptor (antagonist effect)
From the text: as §1

[4] = Metabolic stability in human liver microsomes; type: in vitro ADME
Experimental: Metabolic stability. The metabolic stability of compound 6 was evaluated using human liver microsomes (HLMs). Internal clearance values CLint were calculated by monitoring changes in compound concentration in the presence of microsomes per unit of time, according to the procedure proposed by Obach R. S. (Obach, R. S. Drug Metab. Dispos. 1999, 27, 1350-1359).
Metabolic stability tests—methodology. Metabolic stability studies for compound 6 were performed using HLMs (Promega, Madison, WI, USA). For this purpose, 10 μL of compound 6 at a concentration of 1000 μM was diluted with 132 μL with tris-HCl buffer (100 mM, pH 7.4), followed by the addition of 8 μL of appropriate microsomes. The reaction mixture was preincubated at 37° C. for 5 minutes, followed by the addition of 50 μL of NADPH Regeneration System, supplied by Promega (Madison, WI, USA). After mixing, the whole mixture was incubated at 37° C. for 120 minutes. To complete the reaction, 200 μL of cold methanol was added to the tubes and centrifuged. The supernatant was subjected to UPLC/MS analysis, including fragmentation analysis. Four mixtures of 6 with HLMs were prepared to determine the internal clearance CLint. Each of these reactions was completed at a different time point, after 5, 15, 30 and 45 min, by the addition of cold methanol containing 50 μM internal standard. Then, according to literature guidelines (Obach, R. S. Drug Metab. Dispos. 1999, 27, 1350-1359), based on the plot of the relationship between the height of the peak from 6 and the height of the internal standard, the regression equation was determined and the reaction rate constant k was calculated. Then the constant k was substituted to equation (1).
The calculated t1/2 value was then substituted into equation (2): […]

[5] = screening, 100 mg/kg, time point 0.5 h

TRPV1 receptor (VR1) (h), sequence (Q8NER1 whole entry): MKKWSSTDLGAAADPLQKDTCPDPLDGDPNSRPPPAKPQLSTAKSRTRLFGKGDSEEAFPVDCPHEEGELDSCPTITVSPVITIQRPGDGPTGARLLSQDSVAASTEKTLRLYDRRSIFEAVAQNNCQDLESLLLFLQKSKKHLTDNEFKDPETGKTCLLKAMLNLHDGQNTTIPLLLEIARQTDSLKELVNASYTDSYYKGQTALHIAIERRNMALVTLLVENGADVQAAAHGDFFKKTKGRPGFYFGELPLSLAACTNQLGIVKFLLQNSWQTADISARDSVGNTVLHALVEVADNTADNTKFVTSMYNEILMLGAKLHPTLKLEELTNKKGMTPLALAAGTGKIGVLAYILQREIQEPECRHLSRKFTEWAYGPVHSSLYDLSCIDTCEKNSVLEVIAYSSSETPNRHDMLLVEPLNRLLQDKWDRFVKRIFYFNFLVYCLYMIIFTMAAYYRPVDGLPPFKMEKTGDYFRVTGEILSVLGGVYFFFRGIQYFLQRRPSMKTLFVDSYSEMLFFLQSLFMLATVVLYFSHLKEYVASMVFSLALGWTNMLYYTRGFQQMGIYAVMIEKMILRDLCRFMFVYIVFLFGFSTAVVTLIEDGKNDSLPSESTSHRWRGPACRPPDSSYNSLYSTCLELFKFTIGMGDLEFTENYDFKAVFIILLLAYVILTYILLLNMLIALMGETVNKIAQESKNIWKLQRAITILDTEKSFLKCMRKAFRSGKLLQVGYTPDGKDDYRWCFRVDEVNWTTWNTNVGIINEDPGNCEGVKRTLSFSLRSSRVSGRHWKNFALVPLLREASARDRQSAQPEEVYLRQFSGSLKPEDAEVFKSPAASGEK

## O=C(C(c1ccccc1)N1C(=O)CCC1=O)N1CCN(c2cccc(C(F)(F)F)c2)CC1 (racemic) [Compound 6, 1-(2-Oxo-1-phenyl-2-(4-(3-(trifluoromethyl)phenyl)piperazin-1-yl)ethyl)pyrrolidine-2,5-dione]
[1]; Mus musculus, ip, 0.5 h, mice
  ED50: 22.4 mg/kg
[1]; Mus musculus, ip, screening, 100 mg/kg i.p., 0.5 h, mice, read-out: 6 Hz (32 mA): number of mice protected/number of mice tested (converted)
  responders at 100 mg/kg: 100%
[1]; [5]
  mice protected in the 6 Hz (32 mA) test: 100%
[2]; Mus musculus, ip, 0.5 h, mice
  ED50: 73.2 mg/kg
[2]; screening, 100 mg/kg i.p., 0.5 h, mice
  6 Hz (44 mA): number of mice protected/number of mice tested: 4/4
[2]; [5]
  mice protected in the 6 Hz (44 mA) test: 100%
[3]
  Inhibition of specific control binding, Ca2+ channel type L (verapamil binding site): 58.2 (100) %
TRPV1 receptor (VR1) (h)
  inhibition at 100 µM: 71.7%
[4]; 120 min incubation, UPLC/MS
  metabolites found by UPLC after incubation with HLMs: three metabolites M1-M3
[4]; human, human liver microsomes, pH 7.4, incubation with HLMs, read-out: internal clearance CLint
  CLint scaled at 50 µM: 5.8 mL/min/kg
[4]; incubation with HLMs
  internal clearance CLint: 5.6 mL/min/kg
